Results: ChEMBL document CHEMBL1201862, “PubChem BioAssay data set” (2004)
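Exposure lasted 48 hours, with cells grown in 96-well plates and compounds tested at five concentrations. GI50 = concentration required for 50% inhibition of growth.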 The source made the active and inactive calls. No stated cut-off is given here; in the data, active = GI50 up to about 1.1 µM and inactive = higher.

Tests used:
Test in all cases: NCI anticancer screen, dose series, 48 h
NCI-H23 = tested on: NCI-H23
HCT-15 = tested on: HCT-15
UO-31 = tested on: UO-31
RXF 393 = tested on: RXF 393
SNB-19 = tested on: SNB-19
HOP-92 = tested on: HOP-92
CAKI-1 = tested on: CAKI-1
TK-10 = tested on: TK-10
ACHN = tested on: ACHN
A549 = tested on: A549
HOP-62 = tested on: HOP-62
LOX IMVI = tested on: LOX IMVI
COLO 205 = tested on: COLO 205
HL-60 = tested on: HL-60
IGROV-1 = tested on: IGROV-1
SF-539 = tested on: SF-539
SR = tested on: SR

| SMILES | GI50 (NCI-H23) | GI50 (HCT-15) | GI50 (UO-31) | GI50 (RXF 393) | GI50 (SNB-19) | GI50 (HOP-92) | GI50 (CAKI-1) | GI50 (TK-10) | GI50 (ACHN) | GI50 (A549) | GI50 (HOP-62) | GI50 (LOX IMVI) | GI50 (COLO 205) | GI50 (HL-60) | GI50 (IGROV-1) | GI50 (SF-539) | GI50 (SR) |
| --- | --- | --- | --- | --- | --- | --- | --- | --- | --- | --- | --- | --- | --- | --- | --- | --- | --- |
| Cc1cc(Cl)ccc1NC(=O)C1C(=O)N(c2ccc(Cl)cc2C)C(=O)/C1=N\N (configuration not stated) | 36.9 µM (inactive) | 34.8 µM | 33 µM (inactive) | > 100 µM (inactive) | 38.9 µM (inactive) | 34.7 µM (inactive) | 35.6 µM (inactive) | 34.3 µM (inactive) | 34.1 µM (inactive) | 34.4 µM (inactive) | 40.7 µM (inactive) | 51.2 µM (inactive) | 56.4 µM (inactive) | 24.5 µM (inactive) | 55.1 µM (inactive) | 44.6 µM (inactive) | 26.6 µM (inactive) |
| Cc1c2n(c(=O)[nH]c1=O)C1OC(CO)C(N=[N+]=[N-])C1O2 (configuration not stated) | > 100 µM (inactive) | > 100 µM | > 100 µM (inactive) | 28 µM (inactive) | > 100 µM (inactive) | 49.5 µM (inactive) | > 100 µM (inactive) | > 100 µM (inactive) | > 100 µM (inactive) | > 100 µM (inactive) | > 100 µM (inactive) | > 100 µM (inactive) | > 100 µM (inactive) | > 100 µM (inactive) | > 100 µM (inactive) | > 100 µM (inactive) | > 100 µM (inactive) |
| OCCNCCOc1ccc(/C(=C(/Cl)c2ccccc2)c2ccccc2)cc1 | 14.7 µM (inactive) | 5.58 µM | 9.48 µM (inactive) | 0.637 µM (active) | 13.9 µM (inactive) |  | 12.4 µM (inactive) | 0.408 µM (active) |  | 0.34 µM (active) | 16.7 µM (inactive) | 3.49 µM (inactive) | 3.56 µM (inactive) | 0.729 µM (active) | 10.5 µM (inactive) | 13.6 µM (inactive) | 3.34 µM (inactive) |
| C[C@]12CC[C@H](O)CC1CCC[C@@H]2O (some centres not stated) | > 100 µM (inactive) | > 100 µM | > 100 µM (inactive) | > 100 µM (inactive) | > 100 µM (inactive) | > 100 µM (inactive) | > 100 µM (inactive) | > 100 µM (inactive) |  | > 100 µM (inactive) | > 100 µM (inactive) | > 100 µM (inactive) | > 100 µM (inactive) | > 100 µM (inactive) | > 100 µM (inactive) | > 100 µM (inactive) |  |
| CC(C)N(CCn1c2c3ccccc3ccc2c2oc(=O)c3ccccc3c21)C(C)C | > 100 µM (inactive) | > 100 µM | > 100 µM (inactive) | > 100 µM (inactive) | 65.8 µM (inactive) | > 54.3 µM (inactive) | > 100 µM (inactive) | > 100 µM (inactive) | > 100 µM (inactive) | > 100 µM (inactive) | > 23.1 µM (inactive) | > 100 µM (inactive) | > 100 µM (inactive) | > 100 µM (inactive) | > 100 µM (inactive) | > 43.3 µM (inactive) | > 100 µM (inactive) |
| CCO/C=C1\N=C(c2ccc(Cl)c(Cl)c2)OC1=O | > 100 µM (inactive) | > 100 µM | 36.6 µM (inactive) | 79.8 µM (inactive) | > 100 µM (inactive) | > 100 µM (inactive) | > 100 µM (inactive) | > 100 µM (inactive) | > 100 µM (inactive) | > 100 µM (inactive) | 50 µM (inactive) | > 100 µM (inactive) | > 100 µM (inactive) | > 100 µM (inactive) | > 100 µM (inactive) | > 100 µM (inactive) |  |
| O=c1c2ccccc2c2nc3ccccc3nc2n1C1CCCCC1 | > 100 µM (inactive) | > 100 µM | > 100 µM (inactive) | > 100 µM (inactive) | > 100 µM (inactive) |  | > 100 µM (inactive) | > 100 µM (inactive) | > 100 µM (inactive) | > 100 µM (inactive) |  |  | > 100 µM (inactive) |  | > 100 µM (inactive) | > 100 µM (inactive) | > 100 µM (inactive) |
| CCOC(=O)CN(c1ccccc1)c1nc(=[N+](C)C)ss1 |  | 16.4 µM | 23.7 µM (inactive) | 10.5 µM (inactive) | 61.9 µM (inactive) |  | 50.9 µM (inactive) | 47.4 µM (inactive) | 35.7 µM (inactive) | 30.4 µM (inactive) | 33 µM (inactive) |  | 2.06 µM (inactive) | 13.1 µM (inactive) | > 10 µM (inactive) | 40.1 µM (inactive) | 0.678 µM (active) |
| c1ccc(C(c2ccccc2)c2ccccn2)cc1 | > 100 µM (inactive) | > 100 µM | > 100 µM (inactive) |  | > 100 µM (inactive) |  | > 100 µM (inactive) | > 100 µM (inactive) | > 100 µM (inactive) | > 100 µM (inactive) | > 100 µM (inactive) | > 100 µM (inactive) | > 100 µM (inactive) |  | > 100 µM (inactive) | > 100 µM (inactive) |  |
